# T1: MKK4 (Homo sapiens, UniProt P45985)
# T1 sequence (P45985 1-399): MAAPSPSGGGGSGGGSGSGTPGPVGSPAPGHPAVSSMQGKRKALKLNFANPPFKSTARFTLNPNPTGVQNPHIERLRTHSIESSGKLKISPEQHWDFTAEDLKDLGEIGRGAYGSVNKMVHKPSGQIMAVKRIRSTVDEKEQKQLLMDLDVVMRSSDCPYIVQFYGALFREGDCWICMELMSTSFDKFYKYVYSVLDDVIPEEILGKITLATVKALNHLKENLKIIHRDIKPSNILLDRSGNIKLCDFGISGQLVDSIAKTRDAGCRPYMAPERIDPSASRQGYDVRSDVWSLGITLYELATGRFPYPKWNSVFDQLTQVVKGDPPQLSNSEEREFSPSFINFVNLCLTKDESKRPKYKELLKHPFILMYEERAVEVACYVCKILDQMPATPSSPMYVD
# B1: arrestin-2: full-length non-visual arrestin-2 protein, does not promote JNK3 activation (protein, UniProt P17870 1-418, looked up)
# chain: MGDKGTRVFKKASPNGKLTVYLGKRDFVDHIDLVEPVDGVVLVDPEYLKERRVYVTLTCAFRYGREDLDVLGLTFRKDLFVANVQSFPPAPEDKKPLTRLQERLIKKLGEHAYPFTFEIPPNLPCSVTLQPGPEDTGKACGVDYEVKAFCAENLEEKIHKRNSVRLVIRKVQYAPERPGPQPTAETTRQFLMSDKPLHLEASLDKEIYYHGEPISVNVHVTNNTNKTVKKIKISVRQYADICLFNTAQYKCPVAMEEADDTVAPSSTFCKVYTLTPFLANNREKRGLALDGKLKHEDTNLASSTLLREGANREILGIIVSYKVKVKLVVSRGGLLGDLASSDVAVELPFTLMHPKPKEEPPHREVPEHETPVDTNLIELDTNDDDIVFEDFARQRLKGMKDDKEEEEDGTGSPRLNDR
# modifications: full-length
# Key:
# MKK4 = target: T1, MKK4; assay: MBP pull-down of purified MKK4; type: binding; settings: MBP pull-down, purified proteins
# Description: T1A was expressed in E. coli as an MBP-fusion and purified it on an amylose column^23. The ability of purified GST-MKK4 or GST-MKK7 (FIG. 1A) to bind MBP-T1A immobilized on an amylose column was tested in an in vitro pull-down assay, where MBP and MBP-arrestin-3 served as negative and positive controls, respectively (FIG. 1B). MBP-T1A, but not control MBP, effectively retained both kinases (FIG. 1B). […] Next, it was tested whether T1A binds the uppermost kinase in the cascade, ASK1. Because ASK1 is not available in purified form, HA-tagged ASK1 and YFP-tagged T1A (using YFP as a control) were co-expressed in COS7 cells, lysed the cells, and immunoprecipitated YFP constructs with anti-GFP antibody (FIG. 1C).
# To make MBP-fusions containing arrestin-2/3 elements, the cDNAs encoding arrestin fragments were subcloned into pMal-p2T (generous gift from Dr. Keiji Tanaka, Tokyo Institute of Medical Science) between Eco RI and Xho I sites in frame with MBP, as described^23. MBP-Arr3 (full-length arrestin-3) was created by subcloning the corresponding cDNA into pMal-p2T between Eco RI and Not I sites^23. All MBP-arrestin-3 fusion proteins contained the same […] (SEQ ID NO:29) linker between MBP and arrestin-3 or its fragments. The MBP protein used as negative control was purified using empty pMal-p2T vector containing the same linker with 10 additional residues: […] (SEQ ID NO:30). MBP fusions were purified, as described^23. MBP pull-down was performed, as described^23. Briefly, Indicated MBP fusions (10-30 μg in 50 μL 20 mM Tris/150 mM NaCl) were immobilized on amylose resin (25 μL, 50% slurry, New England Biolabs) for 1 h at 4° C. with slight rotation. Purified, as described^40, MKK4/7 (10 μg in 50 μL 20 mM Tris/150 mM NaCl) were added to the immobilized MBP fusions and rotated gently for 2 h at 4° C. Samples were transferred to centrifuge filters (Durapore®-PVDF-0.65 μm), washed three times with 50 mM HEPES-Na, pH 7.3, 150 mM NaCl. The proteins were eluted by 100 μl of elution buffer (wash buffer containing 50 mM maltose) by gentle rotation for 5 min at 4° C. Eluates were analyzed by SDS-PAGE and Western blotting.
# [1] = system: ASK1-MKK4/7-JNK3 signaling cascade; assay: In cell JNK3 activation assay (co-expression with HA-ASK1 and HA-JNK3α2, phospho-JNK Western blot); type: cell-based, African green monkey; settings: for in cell JNK3α2 activation (phospho-JNK3 densitometry): Example 2, YFP/Venus constructs with HA-ASK1, HA-JNK3α2 in COS7 cells; for JNK3 phosphorylation in cells, HA-tagged arrestins and separated domains: co-expressed with ASK1 and JNK3 in COS7 cells
# Description: COS-7 African green monkey cells were maintained in DMEM supplemented with 10% heat-inactivated FBS (Invitrogen), penicillin, and streptomycin at 37° C. in a humidified incubator with 5% CO2. The cells were plated at 80-90% confluence and transfected using Lipofectamine 2000 (Invitrogen) according to the manufacturer's instructions. Cells were used 48 h post-transfection and serum-starved overnight before experiments.
# COS-7 cells were incubated with phosphatase inhibitors (50 mM NaF and 10 mM Na3VO4) in serum-free medium for 15 min at 37° C.; washed with cold PBS; and lysed with SDS lysis buffer containing 1% SDS, 10 mM Tris (pH7.4), 10 mM NaF, 100 μM Na3VO4, 2 mM EDTA, 2 mM benzamidine and 1 mM PMSF. JNKs activity was assayed by Western blotting using an antibody specific for phosphorylated JNK to detect phosphorylated (active) JNKs^17,20,23. Whole cell lysates were boiled for 5 min and centrifuged at 10,000×g for 10 min, and the supernatants were used for Western blotting. Protein was measured using the Bio-Rad Coomassie Blue assay. The proteins were resolved on 8% SD S-PAGE and transferred to PVDF membrane (Millipore, Bedford, Mass.). Blots were incubated with the primary antibodies (Cell Signaling Technology, Inc) anti-phospho-JNK, anti-JNK, anti-HA (6E2) (1:1000 to 1:5000), followed by appropriate HRP-conjugated secondary antibodies. Protein bands were detected by enhanced chemiluminescence (ECL, Pierce), followed by exposure to x-ray film. To quantify phospho-JNKs, serial dilutions of anisomycin (1 μg/ml)-stimulated HEK-A cell lysates were used to ensure that all samples were in linear range. The values for these proteins are expressed in arbitrary units.
# The JNK3 activation was next tested in cells (See FIG. 7). COS7 cells were transfected with HA-ASK1, HA-JNK3α2, and YFP-arrestin constructs to measure in cell JNK3α2 activation. Phospho-JNK3 is shown as the uppermost band in the Western analysis, and was analyzed by densitometric quantification using Quantity One software (quantification in bottom panel). […] The data were statistically analyzed by ANOVA with protein as the main factor. Significance of the difference from control (p values) is indicated.
# In Cell JNK3 Activation Assay COS7 African green monkey cells were sustained in DMEM solution containing 10% heat-inactivated FBS (Invitrogen), penicillin, and streptomycin at 37° C. and 5% CO2. Cells were transfected at 90-100% confluency in 6-well plates with pcDNA3-HA-ASK1 (0.4 ug), pcDNA3-HA-JNK3α2 (0.2 ug), and pcDNA3-Venus arrestin constructs (0.2-0.6 ug) at a 1:2 ratio of DNA:Lipofectamine 2000 (Invitrogen). At 48 hrs post-transfection, the cells were incubated with phosphatase inhibitors (20 mM NaF and 1 mM Na3VO4) in PBS for 15 mins, washed twice with cold PBS, and lysed using 50 mM Tris (pH 7.8), 2 mM EDTA, 250 mM NaCl, 10% Glycerol, 0.5% NP-40, 2 mM benzamide, and 1 mM PMSF. Protein concentration was measured using the Bio-Rad Quick Start™ Bovine Serum Albumin (BSA) Standard Set. The proteins were subjected to 10% SDS-PAGE and transferred to PVDF membrane (Millipore, Bedford, Mass.). Membranes were incubated with respective primary antibodies (Cell Signaling Technology, Inc.) anti-ASK1 (#3762S), anti-phospho-JNK (#9251), anti-SAPK/JNK (#9252P), anti-GST (#2625), or anti-HA (#3724), followed by the appropriate HRP-conjugated secondary antibodies. Bands were detected by x-ray film using enhanced chemiluminescence (ECL, Pierce) and quantification was done using the software Quantity One (BioRad).
# [2] = system: ARR3-dependent activation of the JNK pathway; assay: Suppression of ARR3-dependent JNK activation (peptide co-expressed with full-length ARR3, Western blot); type: cell-based; settings: for JNK activity on co-expression with full-length ARR3, comparison of shorter peptides: Western blot
# Description: FIG. 9. The ARR3-derived T1A15 peptide is capable of reducing ARR3-dependent activation of the JNK pathway. (A) Dose-dependent action of Venus-T1A15 on the JNK activity. Upper blot panel—T1A15 was expressed at increasing concentration with full-length ARR3. Cells expressing GFP (negative control) and full-length ARR3 only (positive control) are shown for comparison. Note the reduced activity of HA-JNK3α2 expressed in the cells as well as that of endogenous INK isoforms (p54 and p46 bands). The lower panels show corresponding expression of GFP, full-length ARR3 and increasing concentrations of Venus-T1A15. (B) Comparison of the activity of shorter ARR3-derived peptides. Three shorter peptides, T1A15, T1A14, and T1A13, were co-expressed with full-length ARR3, and the INK activity assessed by western blot.
# First, the action of arrestin-3-derived peptides expressed in cultured cells on JNK3 activity was investigated.
# MKK4-JNK3 module = MKK4-JNK3 module (Homo sapiens, UniProt P45985+P53779); settings: previously found, reference 20; cited from earlier work
# MKK4-JNK3 module, sequence (P53779 whole entry, one chain of several): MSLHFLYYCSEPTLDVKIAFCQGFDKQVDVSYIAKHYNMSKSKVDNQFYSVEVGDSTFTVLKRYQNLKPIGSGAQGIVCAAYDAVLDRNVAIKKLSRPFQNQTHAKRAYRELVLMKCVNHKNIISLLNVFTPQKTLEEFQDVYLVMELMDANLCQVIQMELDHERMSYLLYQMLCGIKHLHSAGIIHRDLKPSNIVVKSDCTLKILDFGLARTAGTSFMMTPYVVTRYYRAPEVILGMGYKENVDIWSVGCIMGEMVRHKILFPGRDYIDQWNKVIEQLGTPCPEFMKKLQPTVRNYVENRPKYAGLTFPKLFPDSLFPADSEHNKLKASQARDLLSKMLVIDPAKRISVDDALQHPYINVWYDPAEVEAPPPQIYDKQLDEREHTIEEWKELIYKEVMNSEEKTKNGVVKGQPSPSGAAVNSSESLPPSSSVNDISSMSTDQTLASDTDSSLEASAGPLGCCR
# MKK7-JNK3 module = MKK7-JNK3 module (Homo sapiens, UniProt O14733+P53779); settings: previously found, reference 20; cited from earlier work
# MKK7-JNK3 module, sequence (O14733 whole entry): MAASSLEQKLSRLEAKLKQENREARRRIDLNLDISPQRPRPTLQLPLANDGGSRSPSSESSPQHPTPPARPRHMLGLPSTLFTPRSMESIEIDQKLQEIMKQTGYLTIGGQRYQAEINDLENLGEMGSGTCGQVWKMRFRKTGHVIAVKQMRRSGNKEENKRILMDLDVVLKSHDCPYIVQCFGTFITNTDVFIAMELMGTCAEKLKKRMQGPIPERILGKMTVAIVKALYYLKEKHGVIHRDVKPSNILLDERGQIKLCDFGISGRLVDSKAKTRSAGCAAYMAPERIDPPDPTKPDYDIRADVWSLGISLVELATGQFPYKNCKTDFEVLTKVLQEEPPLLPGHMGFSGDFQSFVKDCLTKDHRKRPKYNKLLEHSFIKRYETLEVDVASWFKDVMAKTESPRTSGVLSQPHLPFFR
# MKK7-JNK3 module, sequence (P53779 whole entry): as the sequence (P53779 whole entry, one chain of several) above
# WT hemiparkinsonian mice = assay: L-DOPA-induced rotations in hemiparkinsonian WT mice; type: in vivo, mouse; settings: peptide expressed under CMV promoter in striatal neurons, versus GFP
# Description: FIG. 11. Inhibition of L-DOPA-induced rotations in WT mice by ARR3-derived peptide T1A15 inhibiting JNK3. The arrestin-3-derived peptide T1A15 expressed under CMV promoter in striatal neurons inhibited rotations in WT mice as compared to WT mice expressing GFP.
# (§1) The mice were rendered hemiparkinsonian by the unilateral injection of the dopaminergic neurotoxin 6-hydroxydopamine. Such animals develop contralateral rotations of increasing frequency in response to repeated administration of L-DOPA. ARR3 knockout mice (KO) have lower propensity than wild type (WT) animals to such rotations.
# [3] = system: hemiparkinsonian ARR3 KO mice; assay: L-DOPA-induced rotations in hemiparkinsonian ARR3 KO mice; type: in vivo, mouse
# Description: FIG. 10. Rescue of L-DOPA-induced rotations in ARR3 KO mice by T1A16. Data are shown as means±S.E.M. Mice were pre-tested for L-DOPA-induced rotations before receiving lentiviruses. Respective lentiviruses were injected into the dorsolateral striatum of ARR3 KO mice. WT mice received GFP. […] In contrast, selective expression of T1A16 in striatopallidal MSNs under control of the enkephaline (ENK) promoter was ineffective. […] Significance levels are by Bonferroni post hoc test across all testing sessions.
# Next, arrestin-3-derived peptides T1A16 and T1A15 were investigated for activity in the animal model of L-DOPA-induced dyskinesia. It was shown that the peptides expressed as Venus fusions in the motor striatum of hemiparkinsonian mice via lentivirus-mediated gene transfer modulate the manifestations of L-DOPA-induced dyskinesia (LID). The mice lacking ARR3 have reduced LID, and restoration of ARR3 into the motor striatum via lentivirus-mediated gene transfer rescues LID in these animals.
# as §1
molecule,measurement,setting,value
"arrestin-3: full-length arrestin-3 (bovine) protein, scaffold of ASK1-MKK4/7-JNK3 cascade",interaction with MKK4 compared with MKK7,MKK4,stronger interaction with MKK4 than with MKK7
same,in cell JNK3α2 activation (phospho-JNK3 densitometry),[1],facilitates JNK3 activation
same,"JNK3 phosphorylation in cells, YFP fusions",[1]; YFP fusions co-expressed with JNK3 and ASK1 in COS7 cells,increased the level of JNK3 phosphorylation
same,"JNK3 phosphorylation in cells, HA-tagged arrestins and separated domains",[1],significantly increases JNK3 phosphorylation in cells
same,"JNK activity on co-expression with full-length ARR3, comparison of shorter peptides",[2],induced the JNK activation
same,optimal concentration for scaffolding MKK4-JNK3 module,MKK4-JNK3 module,~0.6 µM
same,optimal concentration for scaffolding MKK7-JNK3 module,MKK7-JNK3 module,~6 µM
TRVFKKSSPNCKLTV (bovine) [T1A15],in cell JNK3α2 activation (phospho-JNK3 densitometry),[1],inhibit JNK3 activation
same,ARR3-dependent JNK activation at increasing peptide expression,[2]; Venus-T1A15 co-expressed with full-length ARR3,reducing arrestin-3-dependent activation of JNK3 as well as other JNK isoforms in a dose dependent manner
same,"JNK activity on co-expression with full-length ARR3, comparison of shorter peptides",[2],effectively suppressed
same,L-DOPA-induced rotations in WT mice,WT hemiparkinsonian mice,able to suppress the rotational behavior
VFKKSSPNCKLTV (bovine) [T1A13],"JNK activity on co-expression with full-length ARR3, comparison of shorter peptides",[2],no effect
VFKKSSPNCKLTVYLG (bovine) [T1A16],in cell JNK3α2 activation (phospho-JNK3 densitometry),[1],facilitates JNK3 activation
same,JNK3 activation at increasing peptide expression,"[1]; Example 3, T1A16-Venus expressed in Cos7 cells",dose-dependently activates JNK3
same,"L-DOPA-induced rotations in ARR3 KO mice, expression in striatonigral MSNs","[3]; lentivirus, dynorphine (DYN) promoter",fully rescued rotations in A3KO mice
same,"L-DOPA-induced rotations in ARR3 KO mice, expression in striatopallidal MSNs","[3]; lentivirus, enkephaline (ENK) promoter",ineffective
same,L-DOPA-induced rotations in ARR3 KO mice,"[3]; peptide expressed in striatum via lentivirus, 6-hydroxydopamine lesion",fully restores rotations in ARR3 KO mice to the level of that in WT mice
KKSSPNCKLTVYLG (bovine) [T1A14],"JNK activity on co-expression with full-length ARR3, comparison of shorter peptides",[2],marginally effective
B1,"JNK3 phosphorylation in cells, HA-tagged arrestins and separated domains",[1],does not

# From US10369187B2, “Peptide regulators of JNK family kinases” (Vanderbilt University, priority 2017, dated 2019)
